Results published in patent US20060287247A1, “Halogen-substituted thienyl compounds” (priority 2001, published 2006).
In brackets after ≈: the same amount, converted by molar mass. Where two headings read alike, the source gives them in different places.

Experiments:
[1] = tested on: E. coli ATCC 25922; assay: NCCLS broth microdilution MIC; format: cell-based; settings: for MIC: Escherichia coli
Method: (§1) Compounds according to this invention were screened for their in vitro activities against selected species of bacteria and fungi. The minimal inhibition concentration (MIC) of these compounds was determined using the National Committee for Clinical Laboratory Standards (NCCLS) broth microdilution assay in microtiter plates, as set forth in: (1) the guidelines of the National Committee for Clinical Laboratory Standards (NCCLS) Document M7-A4 (NCCLS, 1997); (2) the guidelines of the National Committee for Clinical Laboratory Standards (NCCLS) Document M11-A4 (NCCLS, 1997); and (3) the guidelines and reference method of the National Committee for Clinical Laboratory Standards (NCCLS) Document M27-T (NCCLS, 1995). For antifungal essays, the method recommended in Murray, P R., 1995 Manual of Clinical Microbiology (ASM Press, Washington, D.C.), was employed. […]

[2] = tested on: C. albicans ATCC 38247; assay: NCCLS broth microdilution MIC (antifungal); format: cell-based; settings: E = C. albicans ATCC 38247
Method: as §1

[3] = tested on: B. cereus ATCC 11778; assay: NCCLS broth microdilution MIC; format: cell-based, Bacillus cereus; settings: for MIC: Bacillus cereus
Method: as §1

[4] = tested on: E. faecalis ATCC 29212; assay: NCCLS broth microdilution MIC; format: cell-based, Enterococcus faecalis; settings: for MIC: Enterococcus faecalis
Method: as §1

[5] = tested on: S. aureus ATCC 29213; assay: NCCLS broth microdilution MIC; format: cell-based, Staphylococcus aureus; settings: for MIC: Staphylococcus aureus
Method: as §1

[6] = tested on: S. pneumoniae ATCC 49619; assay: NCCLS broth microdilution MIC; format: cell-based, Streptococcus pneumoniae; settings: for MIC: Streptococcus pneumoniae
Method: as §1

[7] = ATCC25922, D = E. coli ATCC 25922, read-out: Minimum Inhibitory Concentration (MIC)
[8] = ATCC11778, C = B. cereus ATCC 11778, read-out: Minimum Inhibitory Concentration (MIC)
[9] = ATCC29212, B = E. faecalis ATCC 29212, read-out: Minimum Inhibitory Concentration (MIC)
[10] = ATCC49619, F = S. pneumoniae ATCC 49619, read-out: Minimum Inhibitory Concentration (MIC)

| Structure (SMILES) | Minimum Inhibitory Concentration (MIC) ([1]; D = E. coli ATCC 25922) | Minimum Inhibitory Concentration (MIC) [2] | Minimum Inhibitory Concentration (MIC) ([3]; C = B. cereus ATCC 11778) | Minimum Inhibitory Concentration (MIC) ([4]; B = E. faecalis ATCC 29212) | Minimum Inhibitory Concentration (MIC) ([5]; A = S. aureus ATCC 29213) | Minimum Inhibitory Concentration (MIC) ([6]; F = S. pneumoniae ATCC 49619) | also measured |
| --- | --- | --- | --- | --- | --- | --- | --- |
| CN(C)CCN(C)C(=O)CCNC(=O)c1cc(NC(=O)c2cc(NC(=O)CCNC(=O)c3cc(NC(=O)c4cc(NC(=O)c5cc(Br)c(Br)s5)cn4C)cn3C)cn2C)cn1C [Id-10] | >32 µg/mL | >32 µg/mL | >32 µg/mL | >32 µg/mL | >32 µg/mL | +++ (+++ = MIC ≦4) |  |
| Cn1cc(NC(=O)c2cc(NC(=O)c3nc(NC(=O)c4scc(Br)c4Cl)cn3C)cn2C)cc1C(=O)NCCN1CCSCC1 [Ig-10] | >32 µg/mL | >32 µg/mL | +++ (+++ = MIC ≦4) | +++ (+++ = MIC ≦4) |  | +++ (+++ = MIC ≦4) |  |
| CN(C)CCCNC(=O)CCNC(=O)c1cc(NC(=O)c2cc(NC(=O)CCNC(=O)c3cc(NC(=O)c4cc(NC(=O)c5sccc5Cl)cn4C)cn3C)cn2C)cn1C [Id-27] | >32 µg/mL | + (+ = MIC from 12 to 32, inclusive) | +++ (+++ = MIC ≦4) | >32 µg/mL | ++ (++ = MIC between 4 and 12) | +++ (+++ = MIC ≦4) |  |
| Cn1cc(NC(=O)c2cc(NC(=O)c3cc(NC(=O)c4sccc4F)cs3)cn2C)cc1C(=O)NCCN1CCOCC1 [Ig-5] |  | >32 µg/mL |  | +++ (+++ = MIC ≦4) | +++ (+++ = MIC ≦4) | +++ (+++ = MIC ≦4) |  |
| CC1COc2c(N3CCN(C)CC3)c(F)cc3c(=O)c(C(=O)O)cn1c23 (stereo not shown) [Ofloxacin, reference compound] |  |  |  |  |  |  | MIC [1, 7]: < 4 µg/mL; MIC [3, 8]: < 4 µg/mL; MIC [4, 9]: 4 to 12 µg/mL (≈ 11.1 to 33.2 µM); MIC ([5]; ATCC29213, A = S. aureus ATCC 29213, read-out: Minimum Inhibitory Concentration (MIC)): < 4 µg/mL; MIC [6, 10]: < 4 µg/mL |
| Cn1cc(NC(=O)c2cc(NC(=O)c3cc(NC(=O)c4sccc4Cl)cn3C)cn2C)cc1C(=O)NCCN1CCC(F)CC1 [Ie-13] | >32 µg/mL | >32 µg/mL | +++ (+++ = MIC ≦4) | +++ (+++ = MIC ≦4) |  | +++ (+++ = MIC ≦4) |  |
| CN(C)CCCNC(=O)CCNC(=O)c1cc(NC(=O)c2cc(NC(=O)CCNC(=O)c3cc(NC(=O)c4cscc4Cl)cn3C)cn2C)cn1C [Id-28] |  | >32 µg/mL |  | + (+ = MIC from 12 to 32, inclusive) | +++ (+++ = MIC ≦4) | +++ (+++ = MIC ≦4) |  |
| CC(C)S(=O)(=O)c1csc(C(=O)Nc2csc(C(=O)Nc3cc(C(=O)Nc4cc(C(=O)NCCN5CCOCC5)n(C)c4)n(C)c3)c2)c1Cl [Ig-4] |  | >32 µg/mL |  | +++ (+++ = MIC ≦4) | +++ (+++ = MIC ≦4) | +++ (+++ = MIC ≦4) |  |
| CN(C)CCCNC(=O)CCNC(=O)c1cc(NC(=O)c2cc(NC(=O)CCNC(=O)c3cc(NC(=O)c4cc(NC(=O)c5sc(Br)c(Br)c5Cl)cn4C)cn3C)cn2C)cn1C [Id-26] |  | >32 µg/mL |  | >32 µg/mL | >32 µg/mL | + (+ = MIC from 12 to 32, inclusive) |  |
| Cn1cc(NC(=O)c2cc(NC(=O)c3cc(NC(=O)c4cc(NC(=O)c5sccc5Cl)cn4C)cn3C)cn2C)cc1C(=O)NCCN1CCOCC1 [Ie-12] | >32 µg/mL | >32 µg/mL | +++ (+++ = MIC ≦4) | +++ (+++ = MIC ≦4) |  | +++ (+++ = MIC ≦4) |  |
| Cn1cc(NC(=O)c2cc(NC(=O)c3cc(NC(=O)c4scc(Br)c4Cl)cn3C)cn2C)cc1C(=O)NCCN1CCSCC1 [Ie-14] | >32 µg/mL | >32 µg/mL | +++ (+++ = MIC ≦4) | +++ (+++ = MIC ≦4) |  | +++ (+++ = MIC ≦4) |  |
| Cn1cc(NC(=O)c2cc(NC(=O)c3cc(NC(=O)c4sccc4Cl)cn3CCCO)cn2C)cc1C(=O)NCCC(=O)NCCN1CCOCC1 [Ig-2] |  | >32 µg/mL |  | >32 µg/mL | >32 µg/mL | >32 µg/mL |  |
| Cn1cc(NC(=O)c2cc(NC(=O)c3cc(NC(=O)c4sccc4Br)cn3C)cn2C)cc1C(=O)NCCN1CCOCC1 [Ie-2] |  | >32 µg/mL |  | +++ (+++ = MIC ≦4) | +++ (+++ = MIC ≦4) | +++ (+++ = MIC ≦4) |  |
| CN(C)CCCNC(=O)CCNC(=O)c1cc(NC(=O)c2cc(NC(=O)CCNC(=O)c3cc(NC(=O)c4ccc(Cl)s4)cn3C)cn2C)cn1C [Id-29] |  | >32 µg/mL |  | >32 µg/mL | >32 µg/mL | >32 µg/mL |  |
| Cn1cc(NC(=O)c2cc(NC(=O)c3cc(NC(=O)c4sccc4Cl)cs3)cn2C)cc1C(=O)NCCN1CCOCC1 [Ig-1] |  | >32 µg/mL |  | +++ (+++ = MIC ≦4) | +++ (+++ = MIC ≦4) | ++ (++ = MIC between 4 and 12) |  |
| Cn1cc(NC(=O)c2cc(NC(=O)c3cc(NC(=O)c4scc(Br)c4Cl)cn3C)cn2C)cc1C(=O)NCCN1CCCCC1 [Ie-15] | + (+ = MIC from 12 to 32, inclusive) | + (+ = MIC from 12 to 32, inclusive) | +++ (+++ = MIC ≦4) | +++ (+++ = MIC ≦4) |  | +++ (+++ = MIC ≦4) |  |
| Cn1cc(NC(=O)c2cc(NC(=O)c3cc(NC(=O)c4cc(Br)cs4)cn3C)cn2C)cc1C(=O)NCCN1CCOCC1 [Ie-3] |  | >32 µg/mL |  | >32 µg/mL | ++ (++ = MIC between 4 and 12) | +++ (+++ = MIC ≦4) |  |
| Cn1cc(NC(=O)c2cc(NC(=O)CNC(=N)N)cn2C)cc1C(=O)NCCC(=N)N [Netropsin, netropsin, reference compound] |  |  |  |  |  |  | MIC ([1]; ATCC25922, read-out: Minimum Inhibitory Concentration (MIC)): < 4 µg/mL; MIC ([3]; ATCC11778, read-out: Minimum Inhibitory Concentration (MIC)): < 4 µg/mL; MIC ([4]; ATCC29212, read-out: Minimum Inhibitory Concentration (MIC)): < 4 µg/mL; MIC ([5]; ATCC29213, read-out: Minimum Inhibitory Concentration (MIC)): < 4 µg/mL; MIC ([6]; ATCC49619, read-out: Minimum Inhibitory Concentration (MIC)): < 4 µg/mL |
| Cn1cc(NC(=O)c2cc(NC(=O)c3ccc(NC(=O)c4nc(NC(=O)c5sccc5Cl)cn4C)cc3)cn2C)cc1C(=O)NCCN1CCC(F)(F)CC1 [Ih-2] |  |  |  |  |  |  | MIC [1, 7]: > 32 µg/mL; MIC ([2]; Candida albicans, ATCC38247, read-out: Minimum Inhibitory Concentration (MIC)): > 32 µg/mL; MIC [3, 8]: > 32 µg/mL; MIC [4, 9]: < 4 µg/mL; MIC [6, 10]: < 4 µg/mL |
